Experiments:
SF-268 = test: NCI 60-cell line one-dose antiproliferative screen (SRB); assay type: cell-based; settings: Homo sapiens, read-out: growth inhibition % (GI%)
Protocol: (§1) Anticancer activity screening of the newly synthesised compounds was measured in vitro utilising 60 different human tumour cell lines provided by US National Cancer Institute according to previously reported standard procedure[41–43] as follows: Cells are inoculated into 96-well microtiter plates in 100 ml. After cell inoculation, the microtiter plates are incubated at 37 °C, 5% CO2, 95% air, and 100% relative humidity for 24 h prior to addition of experimental compounds. After 24 h, two plates of each cell line are fixed in situ with TCA, to represent a measurement of the cell population for each cell line at the time of compound addition (Tz). Experimental compounds are solubilised in dimethyl sulfoxide at 400-fold the desired final maximum test concentration and stored frozen prior to use. At the time of compound addition, an aliquot of frozen concentrate is thawed and diluted to twice the desired final maximum test concentration with a complete medium containing […] gentamicin. Aliquots of […] of the compounds dilutions are added to the appropriate microtiter wells already containing 100 ml of medium, resulting in the required final compound concentration. Following compound addition, the plates are incubated for an additional 48 h at 37 °C, 5% CO2, 95% air, and 100% relative humidity. For adherent cells, the assay is terminated by the addition of cold trichloroacetic acid (TCA). Cells are fixed in situ by the gentle addition of 50 ml of cold 50% (w/v) TCA (final concentration, 10% TCA) and incubated for […] at 4 °C. The supernatant is discarded, and the plates are washed five times with tap water and air-dried. Sulforhodamine B (SRB) solution (100 ml) at 0.4% (w/v) in 1% acetic acid is added to each well, and plates are incubated for 10 min at room temperature. After staining, the unbound dye is removed by washing five times with 1% acetic acid and the plates are air-dried. The bound stain is subsequently solubilised with a 10 mM trizma base, and the absorbance is read on an automated plate reader at a wavelength of 515 nm. For suspension cells, the methodology is the same except that the assay is terminated by fixing settled cells at the bottom of the wells by gently adding 50 ml of 80% TCA (final concentration, 16% TCA). Using the absorbance measurements [time zero, (Tz), control growth, (C), and test growth in the presence of compound (Ti)], the percentage growth is calculated for each compound. The One-dose data are reported as a mean graph of the percent growth of treated cells. The reported number is growth relative to the no-compound control, and relative to the time zero number of cells. This allows the detection of both growth inhibition and lethality.
(§2) Fifteen newly synthesised compounds were tested for their in vitro antiproliferative activity by the National Cancer Institute (NCI), Maryland, USA[50], under the Developmental Therapeutic Program (DTP)[41]^,[43]^,[51]^,[52]. The tested compounds were evaluated at a concentration of 10 µM on a panel of 60 tumour cell lines representing leukaemia and non-small cell lung, colon, CNS, melanoma, ovarian, renal, prostate, and breast cancers. The antiproliferative activity was presented by the NCI as percent growth of the treated cells and is presented in Table 1 as growth inhibition percentage (GI%) achieved by the tested compounds.

MALME-3M = test: as above; assay type: cell-based; settings: Homo sapiens, read-out: growth inhibition % (GI%)
Protocol: as §1, §2

SR = test: as above; assay type: cell-based; settings: Homo sapiens, read-out: growth inhibition % (GI%)
Protocol: as §1, §2

SNB-19 = test: as above; assay type: cell-based; settings: Homo sapiens, read-out: growth inhibition % (GI%)
Protocol: as §1, §2

SF-539 = test: as above; assay type: cell-based; settings: Homo sapiens, read-out: growth inhibition % (GI%)
Protocol: as §1, §2

ACHN = test: as above; assay type: cell-based; settings: Homo sapiens, read-out: growth inhibition % (GI%)
Protocol: as §1, §2

SNB-75 = test: as above; assay type: cell-based; settings: Homo sapiens, read-out: growth inhibition % (GI%)
Protocol: as §1, §2

HOP-92 = test: as above; assay type: cell-based; settings: Homo sapiens, read-out: growth inhibition % (GI%)
Protocol: as §1, §2

PC-3 = test: as above; assay type: cell-based; settings: Homo sapiens, read-out: growth inhibition % (GI%)
Protocol: as §1, §2

KM12 = test: as above; assay type: cell-based; settings: Homo sapiens, read-out: growth inhibition % (GI%)
Protocol: as §1, §2

SK-OV-3 = test: as above; assay type: cell-based; settings: Homo sapiens, read-out: growth inhibition % (GI%)
Protocol: as §1, §2

MDA-MB-231/ATCC = test: as above; assay type: cell-based; settings: Homo sapiens, read-out: growth inhibition % (GI%)
Protocol: as §1, §2

HCT-116 = test: as above; assay type: cell-based; settings: Homo sapiens, read-out: growth inhibition % (GI%)
Protocol: as §1, §2

RPMI-8226 = test: as above; assay type: cell-based; settings: Homo sapiens, read-out: growth inhibition % (GI%)
Protocol: as §1, §2

IGROV1 = test: as above; assay type: cell-based; settings: Homo sapiens, IGROV-1, read-out: growth inhibition % (GI%)
Protocol: as §1, §2

NCI/ADR-RES = test: as above; assay type: cell-based; settings: Homo sapiens, read-out: growth inhibition % (GI%)
Protocol: as §1, §2

SN 12 C = test: as above; assay type: cell-based; settings: Homo sapiens, SN12C, read-out: growth inhibition % (GI%)
Protocol: as §1, §2

OVCAR-8 = test: as above; assay type: cell-based; settings: Homo sapiens, read-out: growth inhibition % (GI%)
Protocol: as §1, §2

U251 = test: as above; assay type: cell-based; settings: Homo sapiens, U-251, read-out: growth inhibition % (GI%)
Protocol: as §1, §2

T-47D = test: as above; assay type: cell-based; settings: Homo sapiens, T47D, read-out: growth inhibition % (GI%)
Protocol: as §1, §2

A549/ATCC = test: as above; assay type: cell-based; settings: Homo sapiens, read-out: growth inhibition % (GI%)
Protocol: as §1, §2

SK-MEL-5 = test: as above; assay type: cell-based; settings: Homo sapiens, read-out: growth inhibition % (GI%)
Protocol: as §1, §2

A498 = test: as above; assay type: cell-based; settings: Homo sapiens, read-out: growth inhibition % (GI%)
Protocol: as §1, §2

SF-295 = test: as above; assay type: cell-based; settings: Homo sapiens, read-out: growth inhibition % (GI%)
Protocol: as §1, §2

UACC-62 = test: as above; assay type: cell-based; settings: Homo sapiens, read-out: growth inhibition % (GI%)
Protocol: as §1, §2

OVCAR-4 = test: as above; assay type: cell-based; settings: Homo sapiens, read-out: growth inhibition % (GI%)
Protocol: as §1, §2

K-562 = test: as above; assay type: cell-based; settings: Homo sapiens, K562, read-out: growth inhibition % (GI%)
Protocol: as §1, §2

HOP-62 = test: as above; assay type: cell-based; settings: Homo sapiens, read-out: growth inhibition % (GI%)
Protocol: as §1, §2

NCI-H460 = test: as above; assay type: cell-based; settings: Homo sapiens, read-out: growth inhibition % (GI%)
Protocol: as §1, §2

HL-60 (TB) = test: as above; assay type: cell-based; settings: Homo sapiens, read-out: growth inhibition % (GI%)
Protocol: as §1, §2

SW-620 = test: as above; assay type: cell-based; settings: Homo sapiens, read-out: growth inhibition % (GI%)
Protocol: as §1, §2

UO-31 = test: as above; assay type: cell-based; settings: Homo sapiens, read-out: growth inhibition % (GI%)
Protocol: as §1, §2

MCF7 = test: as above; assay type: cell-based; settings: Homo sapiens, read-out: growth inhibition % (GI%)
Protocol: as §1, §2

NCI-H522 = test: as above; assay type: cell-based; settings: Homo sapiens, read-out: growth inhibition % (GI%)
Protocol: as §1, §2

NCI-H23 = test: as above; assay type: cell-based; settings: Homo sapiens, read-out: growth inhibition % (GI%)
Protocol: as §1, §2

CAKI-1 = test: as above; assay type: cell-based; settings: Homo sapiens, read-out: growth inhibition % (GI%)
Protocol: as §1, §2

UACC-257 = test: as above; assay type: cell-based; settings: Homo sapiens, read-out: growth inhibition % (GI%)
Protocol: as §1, §2

LOX IMVI = test: as above; assay type: cell-based; settings: Homo sapiens, read-out: growth inhibition % (GI%)
Protocol: as §1, §2

786-0 = test: as above; assay type: cell-based; settings: Homo sapiens, read-out: growth inhibition % (GI%)
Protocol: as §1, §2

OVCAR-5 = test: as above; assay type: cell-based; settings: Homo sapiens, read-out: growth inhibition % (GI%)
Protocol: as §1, §2

HS 578 T = test: as above; assay type: cell-based; settings: Homo sapiens, read-out: growth inhibition % (GI%)
Protocol: as §1, §2

HCT-15 = test: as above; assay type: cell-based; settings: Homo sapiens, read-out: growth inhibition % (GI%)
Protocol: as §1, §2

NCI-H226 = test: as above; assay type: cell-based; settings: Homo sapiens, read-out: growth inhibition % (GI%)
Protocol: as §1, §2

MOLT-4 = test: as above; assay type: cell-based; settings: Homo sapiens, read-out: growth inhibition % (GI%)
Protocol: as §1, §2

EKVX = test: as above; assay type: cell-based; settings: Homo sapiens, read-out: growth inhibition % (GI%)
Protocol: as §1, §2

Cc1ccc(C(=O)c2ccc(CC(=O)NN=Cc3cc4ccccc4[nH]3)n2C)cc1 [Compound 5e, N′-((1H-Indol-2-yl)methylene)-2–(1-methyl-5–(4-methylbenzoyl)-1H-pyrrol-2-yl) acetohydrazide]
melting point: 198 to 200 °C | inhibition at 10 µM (SF-268): < 10% | inhibition at 10 µM (MALME-3M): < 10% | inhibition at 10 µM (SR): < 10% | inhibition at 10 µM (SNB-19): 17.3% | inhibition at 10 µM (SF-539): < 10% | inhibition at 10 µM (ACHN): < 10% | inhibition at 10 µM (SNB-75): 15.3% | inhibition at 10 µM (HOP-92): 10.3% | inhibition at 10 µM (PC-3): 10.9% | inhibition at 10 µM (KM12): < 10% | inhibition at 10 µM (SK-OV-3): 12.1% | inhibition at 10 µM (MDA-MB-231/ATCC): 20.5% | inhibition at 10 µM (HCT-116): < 10% | inhibition at 10 µM (RPMI-8226): < 10% | inhibition at 10 µM (IGROV1): 45.5% | inhibition at 10 µM (NCI/ADR-RES): < 10% | inhibition at 10 µM (SN 12 C): 10.5% | inhibition at 10 µM (OVCAR-8): < 10% | inhibition at 10 µM (U251): < 10% | inhibition at 10 µM (T-47D): 29.4% | inhibition at 10 µM (A549/ATCC): < 10% | inhibition at 10 µM (SK-MEL-5): < 10% | inhibition at 10 µM (A498): 10.9% | inhibition at 10 µM (SF-295): < 10% | inhibition at 10 µM (UACC-62): 15.8% | inhibition at 10 µM (OVCAR-4): 19.3% | inhibition at 10 µM (K-562): < 10% | inhibition at 10 µM (HOP-62): 24% | inhibition at 10 µM (NCI-H460): < 10% | inhibition at 10 µM (HL-60 (TB)): < 10% | inhibition at 10 µM (SW-620): < 10% | inhibition at 10 µM (UO-31): 40.4% | inhibition at 10 µM (MCF7): 22.1% | inhibition at 10 µM (NCI-H522): 18.9% | inhibition at 10 µM (NCI-H23): 15.4% | inhibition at 10 µM (CAKI-1): 15.8% | inhibition at 10 µM (UACC-257): < 10% | inhibition at 10 µM (LOX IMVI): 10.7% | inhibition at 10 µM (786-0): < 10% | inhibition at 10 µM (OVCAR-5): < 10% | inhibition at 10 µM (HS 578 T): < 10% | inhibition at 10 µM (HCT-15): 12.6% | inhibition at 10 µM (NCI-H226): 15.3% | inhibition at 10 µM (MOLT-4): < 10% | inhibition at 10 µM (EKVX): 25.7%

Reference: paper PMC8079033, “Design, synthesis, anticancer evaluation, and molecular modelling studies of novel tolmetin derivatives as potential VEGFR-2 inhibitors and apoptosis inducers” (Journal of Enzyme Inhibition and Medicinal Chemistry, 2021)
